According to US4772551A (priority 1985, dated 1988):

Biological target: T-2 reactive monoclonal antibody
Assay type: binding, murine
Conditions: not given
In the case of `CC(=O)OC[C@]12C[C@H](OC(=O)CC(C)(C)O)C(C)=C[C@H]1O[C@@H]1[C@H](O)[C@@H](O)[C@@]2(C)[C@]12CO2` [3'OH HT-2], the “50% Inhibition (concentration required to inhibit binding of antibody by 50%)” value (from here on “50% Inhibition”) is reported as 0.100 µg/mL and the “Minimal Inhibition (concentration required for first significant inhibition of binding of antibody)” value is reported as 0.05 µg/mL. For `CC1=C[C@H]2O[C@@H]3[C@H](O)C[C@](C)([C@@]2(CO)[C@H](O)C1=O)[C@]31CO1` [Deoxynivalanol], the “50% Inhibition” value was > 1000. ug/ml and the “Minimal Inhibition (concentration required for first significant inhibition of binding of antibody)” value was > 1000. ug/ml. In the case of `CC(=O)OC[C@]12C[C@H](OC(=O)CC(C)C)C(C)=C[C@H]1O[C@@H]1[C@H](OC(C)=O)[C@@H](OC(C)=O)[C@@]2(C)[C@]12CO2` [Acetyl T-2], the “50% Inhibition” value is reported as 0.094 µg/mL, the “Minimal Inhibition (concentration required for first significant inhibition of binding of antibody)” value is reported as 0.01 µg/mL and the “cross reaction with T-2 monoclonal antibody” value is reported as “strong cross reaction”. With `CC(=O)OC[C@]12C[C@H](OC(=O)CC(C)C)C(C)=C[C@H]1O[C@@H]1[C@H](OC(=O)CCC(=O)O)[C@@H](OC(C)=O)[C@@]2(C)[C@]12CO2` [T-2HS, T-2-hemisuccinate] the “50% Inhibition” value was 0.072 µg/mL and the “Minimal Inhibition (concentration required for first significant inhibition of binding of antibody)” value was 0.01 µg/mL. For `CC(=O)OC[C@]12C[C@H](OC(=O)CC(C)(C)O)C(C)=C[C@H]1O[C@@H]1[C@H](O)[C@@H](OC(C)=O)[C@@]2(C)[C@]12CO2` [3'OH T-2], the “50% Inhibition” value was 0.018 µg/mL and the “Minimal Inhibition (concentration required for first significant inhibition of binding of antibody)” value was 0.005 µg/mL. For `CC1=C[C@H]2O[C@@H]3[C@H](O)[C@@H](O)[C@](C)([C@@]2(CO)C[C@@H]1OC(=O)CC(C)C)[C@]31CO1` [T-2 triol], the “50% Inhibition” value was 14.9 µg/mL and the “Minimal Inhibition (concentration required for first significant inhibition of binding of antibody)” value was 5.0 µg/mL. In the case of `CC(=O)OC[C@]12C[C@H](OC(=O)CC(C)C)C(C)=C[C@H]1O[C@@H]1[C@H](O)[C@@H](O)[C@@]2(C)[C@]12CO2` [HT-2], the “50% Inhibition” value is reported as 1.0 µg/mL, the “Minimal Inhibition (concentration required for first significant inhibition of binding of antibody)” value is reported as 0.5 µg/mL and the “cross reaction with T-2 monoclonal antibody” value is reported as “relatively weak cross-reaction”. For the same compound, the “reactivity relative to T-2” value was 2%. With `CC(=O)OC[C@]12C[C@H](O)C(C)=C[C@H]1O[C@@H]1[C@H](O)[C@@H](OC(C)=O)[C@@]2(C)[C@]12CO2` [Neosolaniol] the “50% Inhibition” value was 1.6 µg/mL and the “Minimal Inhibition (concentration required for first significant inhibition of binding of antibody)” value was 1.0 µg/mL.

Tested on: polyclonal antibodies produced to aflatoxin B1 and ochratoxin A
Conditions: cited from earlier work
In the case of `C[C@@H]1Cc2c(Cl)cc(C(=O)N[C@@H](Cc3ccccc3)C(=O)O)c(O)c2C(=O)O1` [ochratoxin A], the sensitivity is listed as 5-10 ppb.
